Earlier results on one compound are cited in publication PMC13313556, “Development and characterization of triazole-based WDR5 inhibitors for the treatment of glioblastoma” (JCI Insight, 2026).

The target in the data set is WDR5 (Homo sapiens, UniProt P61964). Details: human WDR5 residues Ser22-Cys334 were codon optimized for E. coli; made in house; host or cells: E. coli T7 Express lysY/Iq (New England Biolabs), pET27 plasmid. As to conditions: read-out: direct WDR5 Ki; cited from earlier work.

Structures are written as SMILES. Some results are limits rather than exact numbers.

The Ki is the dissociation constant of the complex between target and ligand, obtained from inhibition or displacement. As for `COc1cc(CN2CCc3c(cc(Cn4ccn(C)c4=N)cc3-c3ccc(F)cc3C)C2=O)cc(OC)c1` [C16, reference compound], the Ki was under 20 pM.
